# Laboratory results reported in ChEMBL document CHEMBL5036312, “From the Design to the In Vivo Evaluation of Benzohomoadamantane-Derived Soluble Epoxide Hydrolase Inhibitors for the Treatment of Acute Pancreatitis” (J Med Chem, 2021).
# Activity calls are given as the source filed them. No cut-off for these calls is given here.
# Experiments:
# SH-SY5Y = assay: cells; conditions: Homo sapiens, 24 h, read-out: LD50
# Description: Cytotoxicity against human SH-SY5Y cells assessed as lethal dose measured after 24 hrs by propidium iodide staining based fluorescent assay
# [1] = Drug uptake in overnight fasted pancreas of cerulein-induced acute pancreatitis C57BL/6 mouse model at 0.1 mg/kg, ip dosed 14 hrs after cerulein injection and measured 10 hrs after compound administration; type: ADME, organism-based; conditions: in vivo
# Mus musculus [2] = assay: Anti-inflammatory activity against overnight fasted cerulein-induced acute pancreatitis C57BL/6 mouse model assessed as reduction in inflammatory cells at 0.1 to 0.3 mg/kg, ip dosed 14 hrs after cerulein injection and measured 10 hrs after compound administration; type: functional, organism-based; conditions: dose 0.1-0.3 mg/kg
# Mus musculus [3] = assay: Anti-inflammatory activity against overnight fasted cerulein-induced acute pancreatitis C57BL/6 mouse model assessed as reversal of pancreatic damage at 0.3 mg/kg, ip dosed 14 hrs after cerulein injection and measured 10 hrs after compound administration; type: functional, organism-based
# [4] = Toxicity in overnight fasted C57BL/6 mouse model of cerulein-induced acute pancreatitis assessed as reversal of edema at 0.3 mg/kg, ip dosed 14 hrs after cerulein injection and measured 10 hrs after compound administration; type: organism-based; conditions: in vivo
# Mus musculus [5] = assay: Anti-inflammatory activity against overnight fasted cerulein-induced acute pancreatitis C57BL/6 mouse model assessed as reduction in severity of pancreatitis at 0.1 to 0.3 mg/kg, ip dosed 14 hrs after cerulein injection and measured 10 hrs after compound administration; type: functional, organism-based; conditions: dose 0.1-0.3 mg/kg
# Mus musculus [6] = assay: Anti-inflammatory activity against overnight fasted cerulein-induced acute pancreatitis C57BL/6 mouse model assessed as reduction in parenchymal atrophy at 0.1 to 0.3 mg/kg, ip dosed 14 hrs after cerulein injection and measured 10 hrs after compound administration; type: functional, organism-based; conditions: dose 0.1-0.3 mg/kg
# [7] = Toxicity in overnight fasted C57BL/6 mouse model of cerulein-induced acute pancreatitis assessed as increase in body weight at 0.3 mg/kg, ip dosed 14 hrs after cerulein injection and measured 10 hrs after compound administration; type: organism-based; conditions: in vivo
# Mus musculus [8] = assay: Anti-inflammatory activity against overnight fasted cerulein-induced acute pancreatitis C57BL/6 mouse model assessed as reversal of reversal of neutrophil infiltration at 0.3 mg/kg, ip dosed 14 hrs after cerulein injection and measured 10 hrs after compound administration; type: functional, organism-based
# [9] = Toxicity in overnight fasted C57BL/6 mouse model of cerulein-induced acute pancreatitis assessed as increase in body weight at 0.1 mg/kg, ip dosed 14 hrs after cerulein injection and measured 10 hrs after compound administration; type: organism-based; conditions: in vivo
Compound,CC50 (SH-SY5Y) [µM],Drug uptake [1],Activity (Mus musculus [2]),Activity (Mus musculus [3]),Activity [4],Activity (Mus musculus [5]),Activity (Mus musculus [6]),Activity [7],Activity (Mus musculus [8]),Activity [9]
O=C(NC12CC3CC(F)(CC(C1)c1ccccc13)C2)N[C@H]1CC[C@H](Oc2ccc(C(=O)O)cc2)CC1,> 100,–,–,–,–,–,–,–,–,–
CC12CC3CC(NC(=O)N[C@H]4CC[C@H](Oc5ccc(C(=O)O)cc5)CC4)(CC(C1)c1ccccc13)C2,> 100,–,–,–,–,–,–,–,–,–
O=C(NC12CC3CC(Cl)(CC(C1)c1ccccc13)C2)N[C@H]1CC[C@H](Oc2ccc(C(=O)O)cc2)CC1,> 100,Not Active,Active,Active,Non-Toxic,Active,Active,Toxic,Active,Toxic
